# Experimental data: ChEMBL document CHEMBL4118151, “Highly potent activity of isopulegol-derived substituted octahydro-2H-chromen-4-ols against influenza A and B viruses” (Bioorg Med Chem Lett, 2018)
# The source made the active and inactive calls. No cut-off for these calls is given here.
# What was measured:
# [1] = Cytotoxicity against MDCK cells after 48 hrs by MTT assay; assay type: cell-based, Canis lupus familiaris; details: dog
# [2] = Selectivity index, ratio of CC50 for MDCK cells to IC50 for amantadine/oseltamivir-susceptible Influenza A virus (A/mallard/Pennsylvania/10218/84(H5N2)); assay type: toxicity; details: dog, read-out: Ratio CC50/IC50
# [3] = Selectivity index, ratio of CC50 for MDCK cells to IC50 for amantadine/oseltamivir-susceptible Influenza A virus (A/Aichi/2/68(H3N2)); assay type: toxicity; details: dog, read-out: Ratio CC50/IC50
# [4] = Selectivity index, ratio of CC50 for MDCK cells to IC50 for amantadine/oseltamivir-susceptible Influenza A virus (A/Singapore/1/57(H2N2)); assay type: toxicity; details: dog, read-out: Ratio CC50/IC50
# H3N2 subtype = experiment: Antiviral activity against amantadine/oseltamivir-susceptible Influenza A virus (A/Aichi/2/68(H3N2)) infected in MDCK cells assessed as inhibition of viral replication after 48 hrs by hemagglutination test; assay type: functional, organism-based; details: A/Aichi/2/1968(H3N2)
# Influenza A virus [5] = experiment: Antiviral activity against amantadine/oseltamivir-susceptible Influenza A virus (A/mallard/Pennsylvania/10218/84(H5N2)) infected in MDCK cells assessed as inhibition of viral replication after 48 hrs by hemagglutination test; assay type: functional, organism-based, Influenza A virus (A/mallard/Pennsylvania/10218/1984(H5N2))
# Influenza A virus [6] = experiment: Antiviral activity against amantadine/oseltamivir-susceptible Influenza A virus (A/mallard/Netherlands/12/00(H7N3)) infected in MDCK cells assessed as inhibition of viral replication after 48 hrs by hemagglutination test; assay type: functional, organism-based, Influenza A virus (A/mallard/Netherlands/12/2000(H7N3))
# Influenza A virus [7] = experiment: Antiviral activity against amantadine/oseltamivir-susceptible Influenza A virus (A/Singapore/1/57(H2N2)) infected in MDCK cells assessed as inhibition of viral replication after 48 hrs by hemagglutination test; assay type: functional, organism-based, Influenza A virus (A/Singapore/1/1957(H2N2))
# [8] = Selectivity index, ratio of CC50 for MDCK cells to IC50 for amantadine/oseltamivir-susceptible Influenza A virus (A/mallard/Netherlands/12/00(H7N3)); assay type: toxicity; details: dog, read-out: Ratio CC50/IC50
# Influenza A virus [9] = experiment: Antiviral activity against Influenza A virus (A/Puerto Rico/8/34(H1N1)) infected in MDCK cells assessed as inhibition of viral replication at 500 uM up to 2 hrs post-infection by hemagglutination test; assay type: functional, organism-based; details: A/Puerto Rico/8/1934(H1N1)
Structure (SMILES),CC50 at 48 h [1],other results
C[C@@H]1CC[C@@H]2[C@@H](C1)O[C@@H](C1CCCCC1)C[C@@]2(C)O,24.2 µM,–
C[C@@H]1CC[C@@H]2[C@@H](C1)OC(C)(C)C[C@]2(C)O,816 µM,–
CC(N)C12CC3CC(CC(C3)C1)C2 (configuration not stated) [RIMANTADINE],319 µM,–
CCC1(CC)C[C@@](C)(O)[C@@H]2CC[C@@H](C)C[C@@H]2O1,188 µM,–
C[C@@H]1CC[C@@H]2[C@H](C1)OC(C)(C)CC2(C)O (some centres not stated),72.2 µM,–
CCC[C@H]1C[C@@](C)(O)[C@@H]2CC[C@@H](C)C[C@H]2O1,> 1330 µM,–
CCCC1(CCC)C[C@@](C)(O)[C@@H]2CC[C@@H](C)C[C@@H]2O1,131 µM,–
NC(=O)c1ncn([C@@H]2O[C@H](CO)[C@@H](O)[C@H]2O)n1 [RIBAVIRIN],> 2130 µM,–
C[C@@H]1CC[C@@H]2[C@H](C1)OC1(CCCC1)C[C@@]2(C)O,810 µM,–
C[C@@H]1CC[C@@H]2[C@H](C1)OC1(CCCCC1)C[C@@]2(C)O,627 µM,–
C[C@@H]1CC[C@@H]2[C@@H](C1)OC(C)(C)C[C@@]2(C)O,> 1420 µM,selectivity ratio [2]: 9; selectivity ratio [3]: 1; selectivity ratio [4]: 1570; IC50 (H3N2 subtype): > 1.42 mM; IC50 (Influenza A virus [5]): 160 µM; IC50 (Influenza A virus [6]): 613 µM; IC50 (Influenza A virus [7]): 900 nM; selectivity ratio [8]: 2; inhibition (Influenza A virus [9]): Active
C[C@@H]1CC[C@@H]2[C@H](C1)OC1(CCCCCC1)C[C@@]2(C)O,210 µM,–
C[C@@H]1CC[C@@H]2[C@H](C1)OC1(CCCCCCC1)C[C@@]2(C)O,379 µM,–
